{"source": "patent US20200000873A1", "about": "“METHODS FOR IMPROVING THE COGNITIVE FUNCTIONS OF A SUBJECT” (The Regents of the University of California, priority 2017, published 2020)", "key": {"Brown Norway rats [1]": {"test_system": "Brown Norway rats", "test": "Probabilistic reversal learning task (PRLT) after long-term (21 days) administration of oxytocin", "assay_type": "in vivo, rat", "text": "(§1) Probabilistic learning, an aspect of executive function, can be assessed in rodents using a probabilistic reversal learning task (PRLT). A PRLT is typically a 1-hour test using two recessed lights in the back of the operant chamber as stimuli (see, FIGS. 2, 3 and 4). After illumination and subsequent extinguishing of the magazine light via nose-poke, a 2 second inter-trial interval occurs, which is then immediately followed by a 10 second period during which two apertures are illuminated wherein the rat can respond via nose-poke. One of the two stimuli is designated the target stimulus, and responses to it are rewarded more frequently (e.g., rewarded 80% of the time) (aperture light extinguished and reward delivered into the magazine) and punished less frequently (e.g., 20% of the time) (aperture light extinguished and house light illuminated for a 4-second timeout period during which no reward was delivered). The other stimulus was designated the non-target stimulus, to which responses are rewarded less frequently (e.g., 20% of the time) and punished more frequently (80% of the time). Initial target and non-target locations are alternated among the testing chambers such that the first target of the session is, for example, the left light in four of the eight chambers, and the right in the others. […] After first criterion acquisition, the target and non-target locations are reversed. The subject then has to recognize that this change, or “switch,” had occurred and adjust its responses accordingly. After another 8 consecutive correct responses, the ratios are switched again. This pattern is repeated for the remainder of the 1-hour session. The number of switches the subject is able to complete within the testing period was the primary outcome variable of PRLT to measure reversal learning. An additional primary outcome measure, trials to first criterion, provided a measure of initial reinforcement learning without the confound of reversal learning included.\n(§2) Several latency measures included mean target latency (millisecond (ms) to respond in the target stimulus), mean non-target latency (ms to respond in the non-target stimulus), and mean reward latency (ms to collect the reward).\n(§3) Rats (Brown Norway rats or Long Evans rats) executive function was tested using a nine-choice operant box (e.g., see FIG. 2). The nine-choice operant box has nine depressions in which a rat can poke its nose into (see FIG. 2), where each depression comprises a light emitting diode (LED). A rat was placed in the box and two of the LEDs were illuminated (e.g., see FIG. 3). One LED, the ‘target’, rewarded a rat's nose poke 80% of the time with food while the other LED, the ‘nontarget’, rewarded a rat's nose poke only 20% of the time. After eight consecutive responses in which the ‘target’ LED was selected, the reward ratios for the two LED's were switched, and the next block of testing was begun. Brown Norway rats were used as test subjects while Long Evans rats were used as controls.\n(§4) Scoring of executive function was based on the number of switches a rat was able to complete within a one-hour test period, as well as the number of block changes a rat can progress through. In particular, the scoring and conclusions of executive function were made as follows:\n(§5) A primary measure of executive function. The number of times the ‘target’ stimulus switches following eight consecutive “correct” responses by the subject. The number of switches a rat is able to complete within a one-hour test period indicates how quickly the rat is able to detect and adjust to reversals. The more switches completed by the rat, the better the executive function of the rat.\n(§6) A primary measure of executive function. Indicates how quickly rat was able to progress through the blocks—the block changes whenever the target switches, so if the subject completed five blocks and is working on the sixth when the one hour testing session ends. […]"}, "humans": {"test_system": "humans", "settings": "humans treated with oxytocin, reported; cited from earlier work"}, "Brown Norway rats [2]": {"test_system": "Brown Norway rats", "test": "Probabilistic reversal learning task (PRLT), single (acute) administration of oxytocin", "assay_type": "in vivo, rat", "text": "as §1, §2, §3, §4, §5, §6"}, "[3]": {"settings": "oxytocin 1.00 mg/kg, Brown Norway rats"}}, "data": [{"smiles": "CC[C@H](C)[C@@H]1NC(=O)[C@H](Cc2ccc(O)cc2)NC(=O)[C@@H](N)CSSC[C@@H](C(=O)N2CCC[C@H]2C(=O)N[C@@H](CC(C)C)C(=O)NCC(N)=O)NC(=O)[C@H](CC(N)=O)NC(=O)[C@H](CCC(N)=O)NC1=O", "note": "[oxytocin]", "values": [{"measurement": "trials to first criterion", "setting": "Brown Norway rats [1]; 1 mg/kg OT vs. vehicle in BN rats, long-term administration", "result": "appears to reduce"}, {"measurement": "number of switches in the PRLT", "setting": "Brown Norway rats [1]; BN rats previously treated with 0.04 mg/kg OT compared with LE rats", "result": "LE rats exhibited more switches"}, {"measurement": "number of switches in the PRLT", "setting": "Brown Norway rats [1]; BN rats previously treated with 0.2 mg/kg OT compared with LE rats", "result": "LE rats exhibited more switches"}, {"measurement": "number of switches in the PRLT", "setting": "Brown Norway rats [1]; BN rats treated with 1 mg/kg OT vs. vehicle-treated BN rats, long-term administration", "result": "significantly more switches"}, {"measurement": "executive function after discontinuation of OT", "setting": "Brown Norway rats [1]; BN rats, 1.0 mg/kg OT for 21 days, tested approximately one week or more after discontinuation", "result": "persistent improvement"}, {"measurement": "time post treatment at which improvement of executive function was seen", "setting": "Brown Norway rats [1]; [3]", "result": 7, "unit": "days"}, {"measurement": "cognitive performance and memory", "setting": "humans", "result": "Impairments"}, {"measurement": "executive function, effect of dose", "setting": "Brown Norway rats [2]; BN rats, 1.00 mg/kg vs. lower doses 0.04 mg/kg and 0.20 mg/kg", "result": "dose dependent"}, {"measurement": "number of switches in the PRLT", "setting": "Brown Norway rats [2]; acute OT 0.04 mg/kg, BN rats vs. vehicle-treated LE rats", "result": "fewer switches"}, {"measurement": "total trials to initial criterion", "setting": "Brown Norway rats [2]; acute OT 1 mg/k/g, BN rats vs. both vehicle-treated BN and LE rats", "result": "reduced"}, {"measurement": "total number of switches completed in the PRLT", "setting": "Brown Norway rats [2]; acute OT 1 mg/kg, BN rats vs. vehicle", "result": "increased"}, {"measurement": "probabilistic learning of subjects", "setting": "Brown Norway rats [2]; administration of oxytocin", "result": "significantly improved"}, {"measurement": "improvement in executive function", "setting": "Brown Norway rats [2]; [3]", "result": "significant"}, {"measurement": "number of switches", "setting": "Brown Norway rats [2]; oxytocin administered to Brown Norway rats, dose not stated", "result": "increased"}, {"measurement": "executive function of the animal subjects", "setting": "Brown Norway rats [2]; oxytocin administered to animal subjects", "result": "significantly improved"}]}]}
